Structures are written as SMILES. ≈ marks a conversion by molar mass, not a printed value. Calls of active or inactive are those of the source. The rule behind the calls is not given here.

Experiment [1] deals with Potato virus X. Kind of experiment: Antiviral activity against Potato virus X in half leaf of Chenopodium quinoa at 9.3 mg/mL after 10 days. In kind it is functional. The conditions noted are these: 240 h.
The test system of experiment [2] is Human alphaherpesvirus 1. The experiment in a line: Antiviral activity against HSV1 in african green monkey Vero cells at 320 ug/mL. In kind it is functional, organism-based.
Experiment [3] deals with Staphylococcus aureus. The experiment in a line: Antimicrobial activity against Staphylococcus aureus at 200 ug/mL after 24 hrs by disk diffusion method. In kind it is functional, organism-based. For orientation: A growth-free zone around the sample is the usual read-out of agar diffusion tests.
Experiment [4] deals with Acetylcholinesterase (Homo sapiens) (UniProt P22303). Kind of experiment: Inhibition of acetylcholinesterase-mediated hydrolysis of acetylcholine at 0.8 mg/mL relative to galanthamine.
Experiment [5] concerns Candida albicans. Kind of experiment: Antimicrobial activity against Candida albicans at 300 ug/mL after 24 hrs by disk diffusion method. In kind it is functional, organism-based.
The subject of experiment [6] is Candida albicans. Kind of experiment: Antimicrobial activity against Candida albicans after 24 hrs by disk diffusion method. In kind it is functional.
For experiment [7], the system named is Staphylococcus aureus. Kind of experiment: Antimicrobial activity against Staphylococcus aureus after 24 hrs by disk diffusion method. In kind it is functional.

Sequence of Acetylcholinesterase (Homo sapiens) (P22303 whole entry, the tested form may be a part): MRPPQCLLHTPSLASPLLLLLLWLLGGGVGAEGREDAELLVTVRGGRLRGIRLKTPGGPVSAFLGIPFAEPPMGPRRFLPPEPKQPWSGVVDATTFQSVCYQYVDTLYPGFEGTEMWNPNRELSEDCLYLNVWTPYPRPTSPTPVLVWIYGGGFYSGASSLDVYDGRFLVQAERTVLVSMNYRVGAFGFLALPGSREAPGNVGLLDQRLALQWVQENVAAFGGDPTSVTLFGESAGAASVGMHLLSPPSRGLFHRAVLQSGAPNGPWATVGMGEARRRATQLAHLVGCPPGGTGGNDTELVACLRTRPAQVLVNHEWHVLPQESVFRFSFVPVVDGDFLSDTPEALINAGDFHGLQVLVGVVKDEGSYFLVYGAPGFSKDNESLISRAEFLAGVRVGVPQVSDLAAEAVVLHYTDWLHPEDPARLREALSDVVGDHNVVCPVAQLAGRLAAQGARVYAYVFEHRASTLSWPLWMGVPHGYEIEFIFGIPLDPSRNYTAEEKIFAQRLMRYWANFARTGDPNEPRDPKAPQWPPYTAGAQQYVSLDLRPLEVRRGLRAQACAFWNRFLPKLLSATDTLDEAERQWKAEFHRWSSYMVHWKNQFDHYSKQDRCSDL

The inhibition is the share of the control response that was lost under treatment. In experiment [1], `COc1ccc(-c2c(C)c(C)cc3ccc(O)cc23)cc1` returned an inhibition at 9300 µg/mL of 36%. The MIC result in experiment [2], in experiment [3] and in experiment [5] was “inactive” throughout. In experiment [4], this molecule yielded an inhibition of 67.6%.
Turning to `O=C1C[C@H](c2ccc(O)c(O)c2)c2c(cc(O)c3c2O[C@H](c2ccc(O)c(O)c2)[C@H](O)[C@H]3c2c(O)cc(O)c3c2O[C@H](c2ccc(O)c(O)c2)[C@H](O)C3)O1` [CINCHONAIN IIA], the inhibition at 9300 µg/mL in experiment [1] came out at 100%. For the same molecule, the MIC result in experiment [2] and in experiment [3] was “inactive” in each case. The MIC in experiment [6] came to 150 µg/mL (≈ 203 µM).
For the molecule `C[C@@H]1OC(=O)[C@@H](CCCCCCCCCCCCCCCCCc2ccccc2)[C@@H]1O` [GRANDINOLIDE], in experiment [1], 9300 µg/mL produced 30% inhibition. Further, the MIC result in experiment [2], in experiment [3] and in experiment [5] was “inactive” throughout.
The molecule `COc1ccc(CCC(=O)c2c(OC)cc(O)c([C@@H](c3ccc(O)cc3)[C@@H](C)[C@H](C)Cc3ccc(O)cc3)c2O)cc1` [IRYANTHERIN K] came in with an inhibition at 9300 µg/mL in experiment [1] of 89%. The molecule further returned an inhibition in experiment [4] of 77.4%. In addition, the MIC result in experiment [5] is “inactive”. This molecule registered an MIC in experiment [7] of 50 µg/mL (≈ 87.6 µM).
For the molecule `COc1ccc(CCC(=O)c2c(OC)cc(O)c([C@H](c3ccc(O)cc3)[C@@H](C)[C@H](C)Cc3ccc(O)cc3)c2O)cc1` [IRYANTHERIN L], in experiment [1], the inhibition at 9300 µg/mL worked out at 67%. Besides, the MIC result in experiment [2], in experiment [3] and in experiment [5] was “inactive” each time.
`CCCCCCCC/C=C\CCCCCCCCCCCCCCCC[C@H]1C(=O)O[C@H](C)[C@@H]1O` [MEGISLACTONE] gave an inhibition at 9300 µg/mL in experiment [1] of 20%. The MIC entry in experiment [2], in experiment [3] and in experiment [5] was “inactive” each time.
Take `Oc1cc(O)c2c(c1)O[C@H](c1ccc(O)c(O)c1)[C@H](O)[C@H]2c1c(O)cc(O)c2c1O[C@H](c1ccc(O)c(O)c1)[C@H](O)C2` [PROCYANIDIN B2]: the inhibition at 9300 µg/mL in experiment [1] came to 98%. Further, the values for the MIC in experiment [6] and in experiment [7] were 150 µg/mL (≈ 259 µM) and 100 µg/mL (≈ 173 µM), respectively.
Turning to `O=c1c(O)c(-c2ccc(O)c(O)c2)oc2cc(O)cc(O)c12` [QUERCETIN], the inhibition at 9300 µg/mL in experiment [1] stood at 100%.
As for `NC(=O)c1ncn([C@@H]2O[C@H](CO)[C@@H](O)[C@H]2O)n1` [RIBAVIRIN], in experiment [1], the inhibition at 9300 µg/mL was determined as 94%.

For the origin of these results see ChEMBL document CHEMBL1150650, “Bioactive constituents from Iryanthera megistophylla” (2002).
